# Data: PubChem BioAssay AID328 (DTP/NCI, 2004)
# Where “and” joins values, the source holds several entries; their conditions need not be identical. Identical values can stand only once. Inconclusive results and toxic doses are left out. Residues, ends and D or L forms follow the SMILES beside them. *: point of attachment. Cbz = O=C(OCc1ccccc1)*
# Test system: BDF1 mice, P388 leukemia ip, median survival T/C
# Experiment: NCI In Vivo Anticancer Drug Screen. Data for tumor model P388 Leukemia (intraperitoneal) in B6D2F1 (BDF1) mice
# Details: endpoint: median survival time, higher = longer survival
# Method in brief: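 Survival ratio, drug arm over vehicle arm, in mice with a transplanted tumour.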
# [1] = dose: 50.0 mg/kg/injection, schedule: Q01DX009 (ip), vehicle: saline with Tween-80
# [2] = dose: 100.0 mg/kg/injection, schedule: Q01DX009 (ip), vehicle: saline with Tween-80
# [3] = dose: 200.0 mg/kg/injection, schedule: Q01DX009 (ip), vehicle: saline with Tween-80
# [4] = dose: 100.0 mg/kg/injection, schedule: Q01DX009 (ip), vehicle: Klucel (hydroxypropylcellulose) (HPC)
# [5] = dose: 200.0 mg/kg/injection, schedule: Q01DX009 (ip), vehicle: Klucel (hydroxypropylcellulose) (HPC)
# [6] = dose: 400.0 mg/kg/injection, schedule: Q01DX009 (ip), vehicle: Klucel (hydroxypropylcellulose) (HPC)
# [7] = dose: 25.0 mg/kg/injection, schedule: Q01DX009 (ip), vehicle: saline with Tween-80
# [8] = dose: 400.0 mg/kg/injection, schedule: Q01DX009 (ip), vehicle: saline with Tween-80
# [9] = dose: 100.0 mg/kg/injection, schedule: Q04DX003 (ip), vehicle: saline with Tween-80
# [10] = dose: 200.0 mg/kg/injection, schedule: Q04DX003 (ip), vehicle: saline with Tween-80
# [11] = dose: 400.0 mg/kg/injection, schedule: Q04DX003 (ip), vehicle: saline with Tween-80
# [12] = dose: 12.5 mg/kg/injection, schedule: Q01DX009 (ip), vehicle: saline
# [13] = dose: 25.0 mg/kg/injection, schedule: Q01DX009 (ip), vehicle: saline
smiles,measurement,setting,value
CCCCCCC(=O)CC(SCC)c1ccc(Cl)cc1Cl (configuration not stated),T/C,[1],98 % of control
same,T/C,[2],104 % of control
same,T/C,[3],104 % of control
CSC1=NN(c2ccccc2)CN(c2ccccc2)N1C,T/C,[1],95 % of control
same,T/C,[2],88 % of control
same,T/C,[3],108 % of control
Cc1cc(C)c(C(=O)C=O)c(C)c1,T/C,"dose: 25.0 mg/kg/injection, schedule: Q01DX009 (ip), vehicle: Klucel (hydroxypropylcellulose) (HPC)",99 % of control
same,T/C,"dose: 50.0 mg/kg/injection, schedule: Q01DX009 (ip), vehicle: Klucel (hydroxypropylcellulose) (HPC)",104 % of control
same,T/C,[4],110 % of control
CC(=O)O[C@H]1[C@H]2O[C@]23[C@@H]2CC[C@@H]4C[C@@H](O)CC[C@]4(C)[C@H]2CC[C@]3(C)[C@H]1c1ccc(=O)oc1,T/C,"dose: 3.75 mg/kg/injection, schedule: Q01DX009 (ip), vehicle: Klucel (hydroxypropylcellulose) (HPC)",100 % of control
same,T/C,"dose: 7.5 mg/kg/injection, schedule: Q01DX009 (ip), vehicle: Klucel (hydroxypropylcellulose) (HPC)",104 % of control
same,T/C,"dose: 10.0 mg/kg/injection, schedule: Q01DX010 (ip), vehicle: carboxymethylcellulose (CMC)",90 % of control
same,T/C,"dose: 20.0 mg/kg/injection, schedule: Q01DX010 (ip), vehicle: carboxymethylcellulose (CMC)",90 % of control
CCCN(CCC)c1ccc(/C=C/c2ccc3cc(OCC)ccc3n2)cc1,T/C,[4],100 % of control
same,T/C,"dose: 100.0 mg/kg/injection, schedule: Q04DX003 (ip), vehicle: Klucel (hydroxypropylcellulose) (HPC)",104 % of control
same,T/C,[5],100 % of control
same,T/C,"dose: 200.0 mg/kg/injection, schedule: Q04DX003 (ip), vehicle: Klucel (hydroxypropylcellulose) (HPC)",104 % of control
same,T/C,[6],90 % of control
same,T/C,"dose: 400.0 mg/kg/injection, schedule: Q04DX003 (ip), vehicle: Klucel (hydroxypropylcellulose) (HPC)",109 % of control
Nc1nc(Cc2ccccc2)c(CCCNc2ccccc2)c(=O)[nH]1,T/C,"dose: 6.25 mg/kg/injection, schedule: Q01DX009 (ip), vehicle: saline with Tween-80",107 % of control
same,T/C,[7],98 % of control
same,T/C,[1],96 % of control
CCC/C(=C\C(=O)O)CC,T/C,[4],109 % of control
same,T/C,[5],100 % of control
same,T/C,[6],104 % of control
OC(c1ccccc1)c1ccccc1,T/C,"dose: 100.0 mg/kg/injection, schedule: Q01DX001 (ip), vehicle: other",95 % of control
same,T/C,"dose: 200.0 mg/kg/injection, schedule: Q01DX001 (ip), vehicle: other",104 % of control
same,T/C,"dose: 400.0 mg/kg/injection, schedule: Q01DX001 (ip), vehicle: other",100 % of control
CS(=O)(=O)c1cnc2ccccc2n1,T/C,[7],97 % of control
same,T/C,[1],99 % of control
same,T/C,[2],90 % of control
COc1ccc(C(=O)CC(C#N)c2ccc(OC)c(OC)c2)cc1OC (configuration not stated),T/C,[2],100 % of control
same,T/C,[3],100 % of control
same,T/C,[8],95 % of control
O=C(O)CC(NC(=O)OCc1ccccc1)C(=O)OCc1ccccc1 (configuration not stated),T/C,[1],92 % of control
same,T/C,[2],111 % of control
same,T/C,[9],104 % of control
same,T/C,[3],111 % of control
same,T/C,[10],113 % of control
same,T/C,[8],100 % of control
same,T/C,[11],90 % of control
C[C@]12C[C@@H](F)C(=O)C[C@@H]1CC[C@@H]1[C@@H]2CC[C@]2(C)[C@@H](O)CC[C@@H]12,T/C,[2],95 % of control
same,T/C,[9],110 % of control
same,T/C,[3],95 % of control
same,T/C,[10],100 % of control
same,T/C,[8],100 % of control
same,T/C,[11],105 % of control
O=C(O)C1CC[N-]CC1.O=C(O)C1CC[N-]CC1.[NH2-].[NH2-].[Pt+4],T/C,"dose: 50.0 mg/kg/injection, schedule: Q01DX009 (ip), vehicle: water",96 % of control
same,T/C,"dose: 100.0 mg/kg/injection, schedule: Q01DX009 (ip), vehicle: water",96 % of control
same,T/C,"dose: 400.0 mg/kg/injection, schedule: Q01DX009 (ip), vehicle: water",113 % of control
O=C(O)C1CCCN1C(=O)C1CCCN1C(=O)OCc1ccccc1 (stereo not drawn) (Cbz-Pro-Pro-OH; configuration not given here),T/C,"dose: 50.0 mg/kg/injection, schedule: Q01DX005 (ip), vehicle: saline",101 % of control
same,T/C,"dose: 100.0 mg/kg/injection, schedule: Q01DX005 (ip), vehicle: saline",101 % of control
same,T/C,"dose: 200.0 mg/kg/injection, schedule: Q01DX005 (ip), vehicle: saline",107 % of control
Cc1c2oc3c(C)c(N)cc(C(=O)NC4C(=O)NC(C(C)C)C(=O)N5CCCC5C(=O)N(C)CC(=O)N(C)C(C(C)C)C(=O)OC4C)c3nc-2c(C(=O)NC2C(=O)NC(C(C)C)C(=O)N3CCCC3C(=O)N(C)CC(=O)N(C)C(C(C)C)C(=O)OC2C)c(N)c1=O (configuration not stated),T/C,"dose: 75.0 micrograms/kg/injection, schedule: Q01DX009 (ip), vehicle: saline + alcohol",153 % of control
same,T/C,"dose: 225.0 micrograms/kg/injection, schedule: Q04DX003 (ip), vehicle: saline + alcohol",151 % of control
same,T/C,"dose: 450.0 micrograms/kg/injection, schedule: Q04DX003 (ip), vehicle: saline + alcohol",90 % of control
C1CC2CCC1CNC2,T/C,[7],95 % of control
same,T/C,[1],100 % of control
same,T/C,[2],100 % of control
CC(C)=CC(=O)OCC[N+](C)(C)C,T/C,[12],97 % of control
same,T/C,[13],90 % of control
COc1cc(C=Nc2ccc(C(=O)O)c(O)c2)ccc1N(CCCl)CCCl,T/C,"dose: 3.6 mg/kg/injection, schedule: Q01DX009 (ip), vehicle: Klucel (hydroxypropylcellulose) (HPC)",196 % of control
same,T/C,"dose: 5.4 mg/kg/injection, schedule: Q01DX009 (ip), vehicle: Klucel (hydroxypropylcellulose) (HPC)",94 % of control
same,T/C,"dose: 8.2 mg/kg/injection, schedule: Q01DX009 (ip), vehicle: Klucel (hydroxypropylcellulose) (HPC)",245 % of control
same,T/C,"dose: 8.3 mg/kg/injection, schedule: Q01DX009 (ip), vehicle: Klucel (hydroxypropylcellulose) (HPC)",184 % of control
same,T/C,"dose: 12.5 mg/kg/injection, schedule: Q01DX009 (ip), vehicle: Klucel (hydroxypropylcellulose) (HPC)",230 % of control and 272 % of control and 213 % of control
same,T/C,"dose: 12.5 mg/kg/injection, schedule: Q04DX003 (ip), vehicle: Klucel (hydroxypropylcellulose) (HPC)",115 % of control
same,T/C,"dose: 18.75 mg/kg/injection, schedule: Q01DX009 (ip), vehicle: Klucel (hydroxypropylcellulose) (HPC)",96 % of control
same,T/C,"dose: 25.0 mg/kg/injection, schedule: Q04DX003 (ip), vehicle: Klucel (hydroxypropylcellulose) (HPC)",115 % of control
same,T/C,"dose: 50.0 mg/kg/injection, schedule: Q04DX003 (ip), vehicle: Klucel (hydroxypropylcellulose) (HPC)",100 % of control
CC(/C=C/c1ccccc1)=Nc1ccc(C)cc1,T/C,[9],104 % of control
same,T/C,[10],101 % of control
same,T/C,[11],104 % of control
Nc1nc(N)c2cc(N3CCCC3c3ccc(Cl)cc3)ccc2n1 (configuration not stated),T/C,"dose: 3.12 mg/kg/injection, schedule: Q01DX009 (ip), vehicle: saline",109 % of control
same,T/C,[12],89 % of control
same,T/C,"dose: 12.5 mg/kg/injection, schedule: Q04DX003 (ip), vehicle: water",92 % of control
same,T/C,"dose: 25.0 mg/kg/injection, schedule: Q04DX003 (ip), vehicle: water",111 % of control
same,T/C,"dose: 50.0 mg/kg/injection, schedule: Q04DX003 (ip), vehicle: water",115 % of control
CO[C@@H]([CH2][Hg][S]C#N)[C@@H]([CH2][Hg][S]C#N)OC,T/C,"dose: 6.25 mg/kg/injection, schedule: Q01DX009 (ip), vehicle: other",110 % of control
same,T/C,"dose: 12.5 mg/kg/injection, schedule: Q01DX009 (ip), vehicle: other",120 % of control
same,T/C,"dose: 25.0 mg/kg/injection, schedule: Q01DX009 (ip), vehicle: other",100 % of control and 109 % of control
same,T/C,"dose: 25.0 mg/kg/injection, schedule: Q04DX003 (ip), vehicle: other",100 % of control
same,T/C,"dose: 50.0 mg/kg/injection, schedule: Q04DX003 (ip), vehicle: other",103 % of control
same,T/C,"dose: 100.0 mg/kg/injection, schedule: Q04DX003 (ip), vehicle: saline sonified",90 % of control
C[N+](C)(CC(=O)Nc1ccc(Cl)cc1)CC(=O)c1ccc(Cl)c(Cl)c1,T/C,"dose: 100.0 mg/kg/injection, schedule: Q01DX001 (ip), vehicle: saline sonified",104 % of control
same,T/C,"dose: 200.0 mg/kg/injection, schedule: Q01DX001 (ip), vehicle: saline sonified",95 % of control
same,T/C,"dose: 400.0 mg/kg/injection, schedule: Q01DX001 (ip), vehicle: saline sonified",100 % of control
CC(=O)CC(C)(C)N,T/C,[13],95 % of control
same,T/C,"dose: 50.0 mg/kg/injection, schedule: Q01DX009 (ip), vehicle: saline",104 % of control
COc1ccc2c(c1OC)CN1CCc3cc4c(cc3C1=C2)OCO4,T/C,"dose: 50.0 mg/kg/injection, schedule: Q01DX005 (ip), vehicle: saline with Tween-80",102 % of control
same,T/C,"dose: 100.0 mg/kg/injection, schedule: Q01DX005 (ip), vehicle: saline with Tween-80",90 % of control
same,T/C,"dose: 200.0 mg/kg/injection, schedule: Q01DX005 (ip), vehicle: saline with Tween-80",91 % of control
